Measured values: patent US9482924B2, “Colored composition and image display structure” (FUJIFILM CORPORATION, priority 2011, dated 2016)

Experiments:
[1] = Absorption maximum wavelength, absorbance and absorption coefficient of colored solution; type: physicochemical; conditions: n-hexane colored solution; for Absorption coefficient (ε): calculated in accordance with the Lambert-Beer law
Procedure: Azomethine pigments (preparing the above exemplified compounds D-1, D-5, D-11, D-20, D-26, D-38, D-43, D-46, D-49, D-55, D-56, D-57 and D-65 shown in the following Table) and n-hexane as an organic solvent were mixed to prepare a 15% by mass azomethine pigment-n-hexane solution (colored composition), thereby manufacturing 13 kinds of colored solutions.
For the colored solution (colored composition), the absorption maximum wavelength (λmax) and the absorbance were measured with a visible light absorbance spectrometer (UV-1800PC, manufactured by Shimadzu Corporation) and the absorption coefficient (ε) was calculated in accordance with the Lambert-Beer law.

[2] = Measurement of relative permittivity; type: physicochemical; conditions: pigment itself, extrapolated from 5, 7.5 and 10% by mass solutions in n-hexane; 20° C., 40% RH, 1 kHz
Procedure: The relative permittivity is a value obtained by injecting the colored composition into a glass cell having a cell gap of 10 μm to which an indium tin oxide (ITO) transparent electrode is attached and measuring, at 20° C. and 40% RH, the electric capacitance of the cell with the colored composition thus-obtained using a TYPE 2353LCR METER (measuring frequency: 1 kHz) manufactured by NF Co., Ltd.
The azomethine pigments shown in the following Table 7 were prepared and solutions of 5% by mass, 7.5% by mass and 10% by mass of each pigment dissolved in n-hexane (all were colored solutions) were prepared. Each colored solution obtained was injected into a glass cell having a cell gap of 10 μm to which an indium tin oxide (ITO) transparent electrode was attached. For each of the glass cells, the electric capacitance was measured (measuring frequency: 1 kHz). Further, a cell for reference was prepared by injecting only n-hexane into a glass cell which was the same kind of glass cell as described above, and the electric capacitance of the cell for reference was also measured. The electric capacitance of the cell obtained was measured at 20° C. and 40% RH using a type 2353LCR meter (measuring frequency: 1 kHz) manufacture by NF Co., Ltd.
The relative permittivity of each colored solution was obtained by the above measurement, and the relative permittivity of each azomethine pigment itself was calculated from the above relative permittivity by extrapolation.

[3] = Measurement of dynamic viscosity; type: physicochemical; conditions: solution of 10% by mass of pigment in decane
Procedure: Note that, the dynamic viscosity is a value measured by adjusting a solution at 10% by mass of the pigment in decane to 20° C. using a viscometer (500 TYPE, manufactured by Toki Sangyo Co., Ltd.).
For the azomethine pigments shown in the following Table 7, a solution of 10% by mass of each pigment in decane was prepared and an R-type viscometer (500 TYPE, manufactured by Toki Sangyo Co., Ltd.) was used to measure the viscosity thereof at 20° C.

Solubility in n-hexane = conditions: in n-hexane at 25° C. and 0.1 MPa
Procedure: Hereinafter, “a solubility in n-hexane at 25° C. and 0.1 MPa” of a pigment is also simply referred to as “solubility”.
The solubility of each azomethine pigment in n-hexane, which is a non-polar solvent, was measured by the following method.
Each pigment was dissolved in n-hexane that had been heated to 50° C. to prepare a saturated solution, and then the saturated solution obtained was left to stand in an environment of 0.1 MPa at 25° C. for 1 hour. The precipitated pigment was filtered and the precipitation amount was measured, thereby calculating the solubility (% by mass) of each pigment in n-hexane at 25° C. and 0.1 MPa.

SMILES	Absorption maximum wavelength [λmax] [1] [nm]	Absorption coefficient (ε) [1]	Relative permittivity [2]	Viscosity (20° C.) [3] [mPa · s]	Solubility (% by mass) (Solubility in n-hexane)
CCCCCCCCN1N=C(C(C)(C)C)C(=Nc2ccc(N(CC)CC)cc2C)C1=O [Pigment D-5]	502	5.20 × 10^4	–	–	8.5 % by mass
CCCCCCCCNC(=O)C1=CC(=Nc2ccc(N(CCCCCCCC)CCCCCCCC)cc2)C=C(C)C1=O [Pigment D-26]	626	2.8 × 10^4	6	1.4	–
CCCCCCCCCCCCCCCCNC(=O)C1=CC(=Nc2ccc(N(CC)CC)cc2CC)c2ccccc2C1=O [Pigment D-38]	630	2.9 × 10^4	4.4	1.5	–
CCCCCCCCCCCCCCCCCCNC(=O)C1=CC(=Nc2ccc(N(CC)CC)cc2OC)c2ccccc2C1=O [Pigment D-43]	658	2.6 × 10^4	4.7	1.5	–
CCCCCCOc1cc(N(CCCCCC)CCCCCC)ccc1N=C1C(C#N)=Nn2nc(C(C)(C)C)nc21 [Pigment D-56]	550	7.2 × 10^4	–	–	3.5 % by mass
CCCCCCCCN1CCc2cc(/N=C3/C(C)=Nn4nc(C(C)CNC(=O)C(CCCCCC)Oc5ccc(C(C)(C)CC)cc5C(C)(C)CC)nc43)ccc21 [Pigment D-57]	540	7.55 × 10^4	6.2	1.2	12.3 % by mass
CCCCCCN(CCCCCC)c1cc(C)c(N=C2C(C#N)=C(C(=O)OC3C(C(C)(C)C)CC(C)CC3C(C)(C)C)c3nc(C(C)(C)C)nn32)c(C)c1 [Pigment D-65]	725	6.8 × 10^4	–	–	≥ 15.0 % by mass
CCN(CC)c1ccc(N=C2C(=O)ON=C2C(C)(C)C)cc1 [Pigment D-102, reference compound]	–	–	–	–	≤ 0.05 % by mass
CCN(CC)c1ccc(N=C2C=C(NC(C)=O)C(=O)C(Cl)=C2C)c(C)c1 [Pigment D-103, reference compound]	–	–	–	–	≤ 0.05 % by mass
CCCCN(CCCC)c1ccc(N=C2C=C(C(=O)NC)C(=O)c3ccccc32)cc1 [Pigment D-104, reference compound]	–	–	–	–	≤ 0.05 % by mass
CCN(CC)c1ccc(/N=C2\C(C#N)=C(C(=O)OC)c3nc(-c4ccc(C(C)(C)C)cc4)nn32)c(C)c1 [Pigment D-106, reference compound]	–	–	–	–	≤ 0.05 % by mass

Continued, values first:

Absorption maximum wavelength [λmax] [1] [nm]	Absorption coefficient (ε) [1]	Relative permittivity [2]	Viscosity (20° C.) [3] [mPa · s]	Solubility (% by mass) (Solubility in n-hexane)	SMILES
500	6.05 × 10^4	8.6	1.3	9.5 % by mass	CCCCCCCCN(CCCCCCCC)c1ccc(N=C2C(=O)N(c3ccccc3)N=C2C)c(C)c1 [Pigment D-1]
502	5.60 × 10^4	–	–	1.1 % by mass	CCCCCCN(CCCCCC)c1ccc(N=C2C(=O)N(c3ccccc3)N=C2C(C)(C)C)c(C)c1 [Pigment D-11]
480	4.80 × 10^4	8.8	1.2	–	CCCCCCCCOc1cc(N(CCCC)CCCC)ccc1N=C1C(=O)ON=C1c1ccccc1 [Pigment D-20]
635	2.8 × 10^4	–	–	–	CCCCCCN(CCCCCC)c1ccc(N=C2C=C(C(=O)Nc3ccccc3)C(=O)c3ccccc32)c(C)c1 [Pigment D-46]
518	7.2 × 10^4	6.7	1.2	11 % by mass	CCCCCCCCN(CCCCCCCC)c1ccc(N=C2C(C(C)(C)C)=Nn3nc(-c4ccccc4)nc32)c(C)c1 [Pigment D-49]
–	–	–	–	0.05 or less % by mass	CCN(CC)c1ccc(N=C2C(=O)N(c3ccccc3)N=C2C)c(C)c1 [Pigment D-101, reference compound]
